Results taken from patent publication US20180037568A1, “MODULATORS OF METHYL MODIFYING ENZYMES, COMPOSITIONS AND USES THEREOF” (Constellation Pharmaceuticals, Inc., priority 2015, published 2018).
Where two headings read alike, the source gives them in different places.

Assays:
H3K27me3 mark = assay: H3K27me3 Alpha Hela Assay (AlphaLISA); format: cell-based; conditions: Hela cells, read-out: EZH2 Cell H3K27me3 Alpha HeLa (EC50 K27me3)
Description: EC50 Measurements for Inhibitors in HeLa Cell Assays
H3K27me3 Alpha Hela Assay (AlphaLISA). Ten different doses of each test compound (in a series of 3-fold dilutions) were plated in duplicate 384-well tissue culture treated plates (Catalog #781080; Greiner Bio One; Monroe, N.C.). Hela cells grown in culture were trypsinized and counted using a Countess® cell counter (Catalog # C10281; Life Technologies, Grand Island, N.Y.). Cell were diluted to 67,000 cells per mL in 10% DMEM (Catalog #10569-010 Life Technologies, Grand Island, N.Y.) and 15 μL (1,000 cells) were plated into each well using the Biotek MicroFlo™ Select Dispenser (BioTek Instruments, Inc. Vermont, USA),) of the 384-well plate. Plates were incubated at 37° C./5% CO2 for 72 hrs. One of the duplicate plates was processed for HeLa assay and the other for viability.
To the plate processed for AlphaLISA was added 5 μL per well Cell-Histone Lysis buffer (1×) (Catalog # AL009F1 Perkin Elmer; Waltham, Mass.) and the plate was incubated at RT for 30 minutes on a plate shaker with low speed (Model#4625-Q Thermo Scientific; Waltham, Mass.). Then, 10 μL per well Histone Extraction buffer (catalog # AL009F2; Perkin Elmer; Waltham, Mass.) was added and the plate further incubated at RT for 20 min on plate shaker with low speed. To each well was then added 10 μL per well of a 5× mix of anti-K27me3 acceptor beads plus Biotinylated anti-Histone H3 (C-ter) Antibody (diluted to 3 nM final) (Catalog #AL118 Perkin Elmer; Waltham, Mass.). Dilution of the acceptor beads and then anti-Histone H3 was with 1× Histone Detection buffer (Catalog # AL009F3 Perkin Elmer; Waltham, Mass.) which was produced diluted from the 10× stock provided. The plate was sealed with an aluminum plate sealer and incubated at 23° C. for 60 min. We then added 10 μL 5× solution of Streptavidin Donor beads (Catalog #6760002 Perkin Elmer; Waltham, Mass.) (20 μg/mL final in 1× Histone Detection Buffer), sealed the plate with Aluminum plate sealer and incubated at 23° C. for 30 min. The plates were then read using an EnVision-Alpha Reader (model #2104 Perkin Elmer; Waltham, Mass.).
Data from both assays was analyzed using Assay Assistant (Constellation Pharmaceuticals In-house product) and Activity Base (IDBS Ltd, Surrey, UK) template. Data files were imported to Assay Assistant and assay conditions were specified. A unique Analysis ID was created and the data files exported to Activity Base. An analysis template was created on Activity Base to measure dose-dependent inhibition of H3K27me3 mark and cell viability respectively. Readout of DMSO wells were used to normalize the data. Resulting curves were fitted using Activity base software Model 205 (IDBS Ltd, Surrey, UK). The data was checked for quality, validated and integrated in excel format using SARview (IDBS Ltd, Surrey, UK).

PRC2 containing wt EZH2 = target: T1, PRC2 containing wt EZH2 (Homo sapiens, UniProt Q15910); assay: EZH2 pep BSA Brij 4.0 LowE (IC50): 3H-SAM incorporation into biotinylated H3 peptide; format: biochemical
T1 construct: made in house
Description: EZH2 Pep BSA Brij 4.0 LowE (IC50):
Compound potencies were assessed through incorporation of ^3H-SAM into a biotinylated H3 peptide. Specifically, PRC2 containing wt EZH2 (20 pM), (pentameric complexes prepared in-house) was pre-incubated with ^3H-SAM (0.9 μM), 2 μM H3K27me3 activating peptide (H2N-RKQLATKAAR(Kme3)SAPATGGVKKP-amide) and compounds (as 10 point duplicate dose response titrations in DMSO, final assay 0.8% DMSO (v/v)) for 120 min in 50 mM Tris (pH 8.5), 1 mM DTT, 0.07 mM Brij-35, 0.1% BSA, and 0.8% DMSO in a total volume of 12.5 μl. Reaction was initiated with biotinylated H3 substrate peptide (H2N-RKQLATKAAR(Kme1)SAPATGGVKKP-NTPEGBiot) as a 2 μM stock in 12.5 μl of buffer and allowed to react at room temperature for 5 h. Quenching was accomplished by addition of 20 μl of STOP solution (50 mM Tris (pH 8.5), 200 mM EDTA, 2 mM SAH). 35 μl of the quenched solution was transferred to Streptavidin Flashplates, incubated overnight, washed, and read in a TopCount Reader (Perkin Elmer). IC50s were calculated relative to fully active and no enzyme control wells using non-linear least square four parameter fits.

[1] = EZH2 pep BSA Brij 4.0 LowE (IC50), 20 pM PRC2 wt EZH2, 0.9 μM 3H-SAM, biotinylated H3 peptide substrate, 2 μM H3K27me3 activating peptide
[2] = read-out: EZH2 pep BSA Brij 4.0 LowE (IC50); 20 pM PRC2 wt EZH2, 0.9 μM 3H-SAM, biotinylated H3 peptide substrate, 2 μM H3K27me3 activating peptide
[3] = 20 pM PRC2 wt EZH2, 0.9 μM 3H-SAM, biotinylated H3 peptide substrate, 2 μM H3K27me3 activating peptide; read-out: EZH2 pep BSA Brij 4.0 LowE (IC50)

T1 sequence (Q15910 whole entry): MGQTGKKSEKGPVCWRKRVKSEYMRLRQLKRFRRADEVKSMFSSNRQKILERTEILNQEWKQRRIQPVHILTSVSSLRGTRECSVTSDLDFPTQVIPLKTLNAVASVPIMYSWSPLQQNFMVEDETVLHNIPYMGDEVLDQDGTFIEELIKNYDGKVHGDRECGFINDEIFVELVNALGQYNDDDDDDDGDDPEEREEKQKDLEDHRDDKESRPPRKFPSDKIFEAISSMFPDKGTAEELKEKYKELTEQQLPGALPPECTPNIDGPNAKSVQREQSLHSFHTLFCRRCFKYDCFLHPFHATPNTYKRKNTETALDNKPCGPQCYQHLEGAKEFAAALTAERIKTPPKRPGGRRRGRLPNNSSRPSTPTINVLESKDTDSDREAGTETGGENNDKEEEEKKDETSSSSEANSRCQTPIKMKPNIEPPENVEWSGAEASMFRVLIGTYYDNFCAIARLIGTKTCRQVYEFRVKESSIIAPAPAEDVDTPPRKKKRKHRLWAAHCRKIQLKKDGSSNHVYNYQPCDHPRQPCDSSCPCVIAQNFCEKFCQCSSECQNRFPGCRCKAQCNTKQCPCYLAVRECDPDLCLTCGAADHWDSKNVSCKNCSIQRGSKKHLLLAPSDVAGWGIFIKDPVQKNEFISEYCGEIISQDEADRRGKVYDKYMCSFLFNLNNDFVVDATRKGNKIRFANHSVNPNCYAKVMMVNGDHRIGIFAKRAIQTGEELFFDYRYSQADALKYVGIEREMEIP
T1 sequence (O75530 whole entry partner): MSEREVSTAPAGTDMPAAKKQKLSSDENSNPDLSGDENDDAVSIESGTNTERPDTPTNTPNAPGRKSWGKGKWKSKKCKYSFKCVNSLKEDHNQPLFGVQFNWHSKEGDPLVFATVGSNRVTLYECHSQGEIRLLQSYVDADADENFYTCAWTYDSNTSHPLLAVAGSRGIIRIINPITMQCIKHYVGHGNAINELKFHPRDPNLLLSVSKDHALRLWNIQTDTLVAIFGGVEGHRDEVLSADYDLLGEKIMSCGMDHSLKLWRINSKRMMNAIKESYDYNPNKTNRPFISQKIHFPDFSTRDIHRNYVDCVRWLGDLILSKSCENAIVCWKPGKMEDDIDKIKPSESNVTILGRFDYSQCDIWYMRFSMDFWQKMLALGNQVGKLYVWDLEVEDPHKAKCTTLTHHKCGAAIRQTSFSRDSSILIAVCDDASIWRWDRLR
T1 sequence (Q15022 whole entry partner): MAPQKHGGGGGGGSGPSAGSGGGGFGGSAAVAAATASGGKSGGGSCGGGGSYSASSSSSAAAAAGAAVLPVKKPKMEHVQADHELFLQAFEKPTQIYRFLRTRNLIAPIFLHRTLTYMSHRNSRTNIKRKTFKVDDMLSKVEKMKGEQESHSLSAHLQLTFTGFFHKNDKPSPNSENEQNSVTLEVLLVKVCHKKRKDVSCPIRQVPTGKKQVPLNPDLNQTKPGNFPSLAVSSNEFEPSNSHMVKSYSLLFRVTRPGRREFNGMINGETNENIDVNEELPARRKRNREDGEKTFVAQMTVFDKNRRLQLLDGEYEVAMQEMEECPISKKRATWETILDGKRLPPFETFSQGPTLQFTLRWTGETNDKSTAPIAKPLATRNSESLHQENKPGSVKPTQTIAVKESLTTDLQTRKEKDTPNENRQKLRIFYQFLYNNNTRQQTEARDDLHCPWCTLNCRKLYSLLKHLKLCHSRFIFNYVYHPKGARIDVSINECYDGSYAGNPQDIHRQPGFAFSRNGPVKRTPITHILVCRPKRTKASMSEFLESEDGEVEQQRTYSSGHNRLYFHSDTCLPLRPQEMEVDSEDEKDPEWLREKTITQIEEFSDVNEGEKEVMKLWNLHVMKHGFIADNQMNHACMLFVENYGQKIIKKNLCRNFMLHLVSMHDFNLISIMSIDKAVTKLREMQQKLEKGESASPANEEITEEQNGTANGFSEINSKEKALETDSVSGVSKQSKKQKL
T1 sequence (Q09028 whole entry partner): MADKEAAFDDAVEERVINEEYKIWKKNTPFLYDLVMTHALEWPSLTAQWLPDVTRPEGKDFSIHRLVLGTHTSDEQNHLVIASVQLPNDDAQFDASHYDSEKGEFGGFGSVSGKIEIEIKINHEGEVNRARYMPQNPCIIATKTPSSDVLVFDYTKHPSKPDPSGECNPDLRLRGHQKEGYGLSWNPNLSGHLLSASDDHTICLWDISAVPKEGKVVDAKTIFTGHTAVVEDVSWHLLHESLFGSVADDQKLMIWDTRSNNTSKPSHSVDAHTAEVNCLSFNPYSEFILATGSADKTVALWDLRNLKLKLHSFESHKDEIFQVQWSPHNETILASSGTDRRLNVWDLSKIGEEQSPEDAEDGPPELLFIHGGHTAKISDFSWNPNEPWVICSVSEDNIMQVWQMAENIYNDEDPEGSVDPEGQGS
T1 sequence (Q6ZN18 whole entry partner): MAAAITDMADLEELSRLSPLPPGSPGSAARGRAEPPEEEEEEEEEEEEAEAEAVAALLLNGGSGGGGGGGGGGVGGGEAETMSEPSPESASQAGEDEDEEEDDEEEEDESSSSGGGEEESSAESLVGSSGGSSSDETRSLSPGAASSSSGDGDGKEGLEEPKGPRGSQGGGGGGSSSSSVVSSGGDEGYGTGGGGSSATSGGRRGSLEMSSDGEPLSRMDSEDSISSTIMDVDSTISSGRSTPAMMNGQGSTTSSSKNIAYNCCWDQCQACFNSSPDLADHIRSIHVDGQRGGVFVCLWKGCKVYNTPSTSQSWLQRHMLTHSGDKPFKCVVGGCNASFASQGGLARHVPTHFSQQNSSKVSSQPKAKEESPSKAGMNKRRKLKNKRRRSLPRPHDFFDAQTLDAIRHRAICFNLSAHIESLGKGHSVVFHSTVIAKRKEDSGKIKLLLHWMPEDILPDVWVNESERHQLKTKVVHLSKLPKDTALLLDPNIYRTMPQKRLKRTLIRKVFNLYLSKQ

Structure (SMILES) | IC50 (PRC2 containing wt EZH2; [1]) | IC50 (PRC2 containing wt EZH2; [3]) | other results
Cc1cc(C)c(CNC(=O)c2c(C)n(C(C)C3CCNC(C(F)(F)F)C3)c3ccccc23)c(=O)[nH]1 (single isomer, unassigned) [Compound 17, N-((4,6-dimethyl-2-oxo-1,2-dihydropyridin-3-yl)methyl)-2-methyl-1-(1-(2-(trifluoromethyl)piperidin-4-yl)ethyl)-1H-indole-3-carboxamide] | < 100 nM | – | EC50 (H3K27me3 mark; Homo sapiens, HeLa, 72 h): < 400 nM
Cc1cc(C)c(CNC(=O)c2c(C)n(C(C)C3CCN(C)C(C(F)(F)F)C3)c3ccccc23)c(=O)[nH]1 (single isomer, unassigned) [Compound 25, N-((4,6-dimethyl-2-oxo-1,2-dihydropyridin-3-yl)methyl)-2-methyl-1-(1-(1-methyl-2-(trifluoromethyl)piperidin-4-yl)ethyl)-1H-indole-3-carboxamide] | < 100 nM | – | EC50 (H3K27me3 mark; 72 hrs): > 2000 nM
Cc1cc(C)c(CNC(=O)c2c(C)n(C(C)C3CCN(C)C(C(F)(F)F)C3)c3ccccc23)c(=O)[nH]1 (single isomer, unassigned) [Compound 26, N-((4,6-dimethyl-2-oxo-1,2-dihydropyridin-3-yl)methyl)-2-methyl-1-(1-(1-methyl-2-(trifluoromethyl)piperidin-4-yl)ethyl)-1H-indole-3-carboxamide] | – | – | EC50 (H3K27me3 mark; 72 hrs): < 400 nM; IC50 (PRC2 containing wt EZH2; [2]): < 100 nM
Cc1cc(C)c(CNC(=O)c2c(C)n(C(C)C3CCN(CC(C)(F)F)C(C)C3)c3ccccc23)c(=O)[nH]1 (stereo not shown) [Compound 48] | 100 to 1000 nM | – | –
Cc1cc(C)c(CNC(=O)c2c(C)n(C(C)C3CCN(CC(C)(F)F)C(C)C3)c3ccccc23)c(=O)[nH]1 (stereo not shown) [Compound 49] | 100 to 1000 nM | – | –
COc1cc(C)[nH]c(=O)c1CNC(=O)c1c(C)n(C(C)C2CCNC(c3ccccc3F)C2)c2ccccc12 (stereo not shown) [Compound 50] | < 100 nM | – | –
COc1cc(C)[nH]c(=O)c1CNC(=O)c1c(C)n(C(C)C2CCNC(c3cccc(F)c3)C2)c2ccccc12 (stereo not shown) [Compound 51] | – | < 100 nM | –
Cc1cc(C)c(CNC(=O)c2c(C)n(C(C)C3CCNC(c4cccc(F)c4)C3)c3ccccc23)c(=O)[nH]1 (stereo not shown) [Compound 52] | – | < 100 nM | –
Cc1cc(C)c(CNC(=O)c2c(C)n(C(C)C3CCNC(c4cccc(F)c4)C3)c3ccccc23)c(=O)[nH]1 (stereo not shown) [Compound 53] | – | < 100 nM | –
CCC1CC(C(C)n2c(C)c(C(=O)NCc3c(OC)cc(C)[nH]c3=O)c3ccccc32)CCN1CC(F)F (stereo not shown) [Compound 54] | < 100 nM | – | –
COc1cc(C)[nH]c(=O)c1CNC(=O)c1c(C)n(C(C)C2CCN(C)C(c3cccc(F)c3)C2)c2ccccc12 (stereo not shown) [Compound 55] | – | < 100 nM | –
Cc1cc(C)c(CNC(=O)c2c(C)n(C(C)C3CCN(C)C(c4cccc(F)c4)C3)c3ccccc23)c(=O)[nH]1 (stereo not shown) [Compound 56] | – | < 100 nM | –
COc1cc(C)[nH]c(=O)c1CNC(=O)c1c(C)n(C(C)C2CCN(C)C(c3cccc(F)c3)C2)c2ccccc12 (stereo not shown) [Compound 57] | – | < 100 nM | –
Cc1cc(C)c(CNC(=O)c2c(C)n(C(C)C3CCN(CC(C)(F)F)C(C)C3)c3ccccc23)c(=O)[nH]1 (stereo not shown) [Compound 58] | < 100 nM | – | –
CCC1CC(C(C)n2c(C)c(C(=O)NCc3c(OC)cc(C)[nH]c3=O)c3ccccc32)CCN1CC(F)F (stereo not shown) [Compound 59] | – | – | IC50 (PRC2 containing wt EZH2; [2]): < 100 nM
CCC1CC(C(C)n2c(C)c(C(=O)NCc3c(OC)cc(C)[nH]c3=O)c3ccccc32)CCN1CC(F)F (stereo not shown) [Compound 60] | – | – | IC50 (PRC2 containing wt EZH2; [2]): < 100 nM
Cc1cc(C)c(CNC(=O)c2c(C)n(C(C)C3CCN(C)C(c4cccc(F)c4)C3)c3ccccc23)c(=O)[nH]1 (stereo not shown) [Compound 61] | – | < 100 nM | –
CCC1CC(C(C)n2c(C)c(C(=O)NCc3c(OC)cc(C)[nH]c3=O)c3ccccc32)CCN1CC(F)F (stereo not shown) [Compound 62] | – | – | IC50 (PRC2 containing wt EZH2; [2]): < 100 nM
CCC1CC(C(C)n2c(C)c(C(=O)NCc3c(OC)cc(C)[nH]c3=O)c3ccccc32)CCN1CC(F)F (stereo not shown) [Compound 63] | – | – | IC50 (PRC2 containing wt EZH2; [2]): < 100 nM

Structure (SMILES) | IC50 (PRC2 containing wt EZH2; [1]) | IC50 (PRC2 containing wt EZH2; [3]) | other results
COc1cc(C)[nH]c(=O)c1CNC(=O)c1c(C)n(C(C)C2CCN(CC(C)(F)F)C(C)C2)c2ccccc12 (stereo not shown) [Compound 64] | < 100 nM | – | –
COc1cc(C)[nH]c(=O)c1CNC(=O)c1c(C)n(C(C)C2CCNC(c3cccc(F)c3)C2)c2ccccc12 (stereo not shown) [Compound 65] | – | < 100 nM | –
CCC1CC(C(C)n2c(C)c(C(=O)NCc3c(C)cc(C)[nH]c3=O)c3ccccc32)CCN1CC(F)F (stereo not shown) [Compound 67] | < 100 nM | – | –
Cc1cc(C)c(CNC(=O)c2c(C)n(C(C)C3CCN(CC(C)(F)F)C(C)C3)c3ccccc23)c(=O)[nH]1 (stereo not shown) [Compound 74] | < 100 nM | – | –
COc1cc(C)[nH]c(=O)c1CNC(=O)c1c(C)n(C(C)C2CCN(C(C)=O)C(CC(F)(F)F)C2)c2ccccc12 (stereo not shown) [Compound 75] | – | < 100 nM | –
COc1cc(C)[nH]c(=O)c1CNC(=O)c1c(C)n(C(C)C2CCNC(c3cccc(C(F)(F)F)c3)C2)c2ccccc12 (stereo not shown) [Compound 76] | – | < 100 nM | –
COc1cc(C)[nH]c(=O)c1CNC(=O)c1c(C)n(C(C)C2CCNC(c3cccc(C(F)(F)F)c3)C2)c2ccccc12 (stereo not shown) [Compound 77] | – | < 100 nM | –
COc1cc(C)[nH]c(=O)c1CNC(=O)c1c(C)n(C(C)C2CCN(C(C)=O)C(C)C2)c2ccccc12 (stereo not shown) [Compound 78] | – | < 100 nM | –
COC(=O)N1CCC(C(C)n2c(C)c(C(=O)NCc3c(OC)cc(C)[nH]c3=O)c3ccccc32)CC1C (stereo not shown) [Compound 79] | – | < 100 nM | –
COc1cc(C)[nH]c(=O)c1CNC(=O)c1c(C)n(C(C)C2CCN(C(C)=O)C(CC(F)(F)F)C2)c2ccccc12 (stereo not shown) [Compound 80] | – | < 100 nM | –
COc1cc(C)[nH]c(=O)c1CNC(=O)c1c(C)n(C(C)C2CCN(C(C)=O)C(CC(F)(F)F)C2)c2ccccc12 (stereo not shown) [Compound 81] | – | < 100 nM | –
COC(=O)N1CCC(C(C)n2c(C)c(C(=O)NCc3c(OC)cc(C)[nH]c3=O)c3ccccc32)CC1C (stereo not shown) [Compound 82] | – | 100 to 1000 nM | –
Cc1cc(C)c(CNC(=O)c2c(C)n(C(C)C3CCNC(CC(F)(F)F)C3)c3ccccc23)c(=O)[nH]1 (stereo not shown) [Compound 83] | < 100 nM | – | –
Cc1cc(C)c(CNC(=O)c2c(C)n(C(C)C3CCNC(CC(F)(F)F)C3)c3ccccc23)c(=O)[nH]1 (stereo not shown) [Compound 85] | – | – | IC50 (PRC2 containing wt EZH2; [2]): < 100 nM
Cc1cc(C)c(CNC(=O)c2c(C)n(C(C)C3CCNC(CC(F)(F)F)C3)c3ccccc23)c(=O)[nH]1 (stereo not shown) [Compound 86] | – | – | IC50 (PRC2 containing wt EZH2; [2]): < 100 nM
COc1cc(C)[nH]c(=O)c1CNC(=O)c1c(C)n(C(C)C2CCNC(CC(F)(F)F)C2)c2ccccc12 (stereo not shown) [Compound 87] | 100 to 1000 nM | – | –
CCS(=O)(=O)N1CCC(C(C)n2c(C)c(C(=O)NCc3c(OC)cc(C)[nH]c3=O)c3ccccc32)CC1C (stereo not shown) [Compound 93] | 100 to 1000 nM | – | –
CCS(=O)(=O)N1CCC(C(C)n2c(C)c(C(=O)NCc3c(OC)cc(C)[nH]c3=O)c3ccccc32)CC1C (stereo not shown) [Compound 94] | 100 to 1000 nM | – | –
